Assay results reported in US10597388B2, “Pyridazinone herbicides” (FMC CORPORATION, priority 2014, dated 2020).

Tests used:
Assay type in all cases: in vivo
[1] = tested on: kochia (Kochia scoparia); experiment: Test C greenhouse herbicide test, postemergence
How it was run: (§1)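 Steps: pot plants in peat-based medium; spray postemergence at 1- to 4-leaf stage; hold in greenhouse 13 to 15 d; score visually against controls from 0 (no effect) to 100 (complete control).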

[2] = tested on: oat, wild (wild oat, Avena fatua); experiment: Test C greenhouse herbicide test, postemergence
How it was run: as §1

[3] = tested on: lambsquarters (Chenopodium album); experiment: Test C greenhouse herbicide test, pre- and postemergence
Excerpt: (§2) Seeds of plant species selected from blackgrass (Alopecurus myosuroides), ryegrass, Italian (Italian ryegrass, Lolium multiflorum), wheat (winter wheat, Triticum aestivum), galium (catchweed bedstraw, Galium aparine), corn (Zea mays), large crabgrass, large (large crabgrass, Digitaria sanguinalis), foxtail, giant (giant foxtail, Setaria faberii), johnsongrass (Sorghum halepense), lambsquarters (Chenopodium album), morningglory (Ipomoea coccinea), nutsedge, yellow (yellow nutsedge, Cyperus esculentus), pigweed (Amaranthus retroflexus), ragweed (common ragweed, Ambrosia elatior), soybean (Glycine max), barnyardgrass (Echinochloa crus-galli), oilseed rape (Brassica napus), waterhemp (common waterhemp, Amaranthus rudis), and velvetleaf (Abutilon theophrasti) were planted into a blend of loam soil and sand and treated preemergence with test chemicals formulated in a non-phytotoxic solvent mixture which included a surfactant.
(§3) At the same time, plants selected from these crop and weed species and also chickweed (common chickweed, Stellaria media), kochia (Kochia scoparia), and oat, wild (wild oat, Avena fatua), were planted in pots containing Redi-Earth® planting medium (Scotts Company, 14111 Scottslawn Road, Marysville, Ohio 43041) comprising spaghnum peat moss, vermiculite, wetting agent and starter nutrients and treated with postemergence applications of test chemicals formulated in the same manner. Plants ranged in height from 2 to 18 cm (1- to 4-leaf stage) for postemergence treatments. Treated plants and controls were maintained in a greenhouse for 13 to 15 d, after which time all species were compared to controls and visually evaluated. Plant response ratings, summarized in Table C, are based on a scale of 0 to 100 where 0 is no effect and 100 is complete control. A dash (-) response means no test result.

[4] = tested on: barnyardgrass (Echinochloa crus-galli); experiment: as above
Excerpt: as §2, §3

[5] = tested on: pigweed (Amaranthus retroflexus); experiment: as above
Excerpt: as §2, §3

[6] = tested on: foxtail, giant (giant foxtail, Setaria faberii); experiment: as above
Excerpt: as §2, §3

[7] = tested on: johnsongrass (Sorghum halepense); experiment: as above
Excerpt: as §2, §3

[8] = tested on: ryegrass, Italian (Italian ryegrass, Lolium multiflorum); experiment: as above
Excerpt: as §2, §3

[9] = tested on: waterhemp (common waterhemp, Amaranthus rudis); experiment: as above
Excerpt: as §2, §3

[10] = tested on: crabgrass, large (large crabgrass, Digitaria sanguinalis); experiment: as above
Excerpt: as §2, §3

[11] = tested on: ragweed (common ragweed, Ambrosia elatior); experiment: as above
Excerpt: as §2, §3

[12] = tested on: morningglory (Ipomoea coccinea); experiment: as above
Excerpt: as §2, §3

[13] = tested on: wheat (winter wheat, Triticum aestivum); experiment: as above
Excerpt: as §2, §3

[14] = tested on: soybean (Glycine max); experiment: as above
Excerpt: as §2, §3

[15] = tested on: corn (Zea mays); experiment: as above
Excerpt: as §2, §3

[16] = tested on: blackgrass (Alopecurus myosuroides); experiment: as above
Excerpt: as §2, §3

[17] = Postemergence, 31 g ai/ha, 0 to 100 scale (0 no effect, 100 complete control)
[18] = Postemergence, 125 g ai/ha, scale 0 to 100, 0 is no effect, 100 is complete control
[19] = Postemergence, 250 g ai/ha, scale 0 to 100, 0 no effect, 100 complete control, 13 to 15 d
[20] = postemergence, 62 g ai/ha, scale 0 to 100, 0 no effect, 100 complete control

## COc1nn(C)c(=O)c(-c2c(C)sc3ccccc23)c1O [Compound 33]
[1]; [17]
  Kochia plant response rating: 20
[1]; [18]
  Plant response rating, Kochia: 40
[1]; [19]
  Plant response rating, Kochia: 50
[1]; [20]
  Kochia plant response rating: 5
[2]; [17]
  Oat, Wild plant response rating: 35
[2]; [18]
  Plant response rating, Oat, Wild: 40
[2]; [19]
  Plant response rating, Oat, Wild: 45
[2]; [20]
  Oat, Wild plant response rating: 30
[3]; [17]
  Lambsquarters plant response rating: 90
[3]; [18]
  Plant response rating, Lambsquarters: 98
[3]; [19]
  Plant response rating, Lambsquarters: 100
[3]; [20]
  Lambsquarters plant response rating: 95
[4]; [17]
  Barnyardgrass plant response rating: 25
[4]; [18]
  Plant response rating, Barnyardgrass: 50
[4]; [19]
  Plant response rating, Barnyardgrass: 80
[4]; [20]
  Barnyardgrass plant response rating: 25
[5]; [17]
  Pigweed plant response rating: 30
[5]; [18]
  Plant response rating, Pigweed: 65
[5]; [19]
  Plant response rating, Pigweed: 80
[5]; [20]
  Pigweed plant response rating: 50
[6]; [17]
  Foxtail, Giant plant response rating: 20
[6]; [18]
  Plant response rating, Foxtail, Giant: 60
[6]; [19]
  Plant response rating, Foxtail, Giant: 70
[6]; [20]
  Foxtail, Giant plant response rating: 40
[7]; [17]
  Johnsongrass plant response rating: 0
[7]; [18]
  Plant response rating, Johnsongrass: 5
[7]; [19]
  Plant response rating, Johnsongrass: 40
[7]; [20]
  Johnsongrass plant response rating: 5
[8]; [17]
  Ryegrass, Italian plant response rating: 30
[8]; [18]
  Plant response rating, Ryegrass, Italian: 70
[8]; [19]
  Plant response rating, Ryegrass, Italian: 75
[8]; [20]
  Ryegrass, Italian plant response rating: 45
[9]; [17]
  Waterhemp plant response rating: 25
[9]; [18]
  Plant response rating, Waterhemp: 65
[9]; [19]
  Plant response rating, Waterhemp: 75
[9]; [20]
  Waterhemp plant response rating: 30
[10]; [17]
  Crabgrass, Large plant response rating: 10
[10]; [18]
  Plant response rating, Crabgrass, Large: 20
[10]; [19]
  Plant response rating, Crabgrass, Large: 25
[10]; [20]
  Crabgrass, Large plant response rating: 20
[11]; [17]
  Ragweed plant response rating: 85
[11]; [18]
  Plant response rating, Ragweed: 90
[11]; [19]
  Plant response rating, Ragweed: 98
[11]; [20]
  Ragweed plant response rating: 95
[12]; [17]
  Morningglory plant response rating: 85
[12]; [18]
  Plant response rating, Morningglory: 95
[12]; [19]
  Plant response rating, Morningglory: 98
[12]; [20]
  Morningglory plant response rating: 95
[13]; [17]
  Wheat plant response rating: 0
[13]; [18]
  Plant response rating, Wheat: 0
[13]; [19]
  Plant response rating, Wheat: 0
[13]; [20]
  Wheat plant response rating: 0
[14]; [17]
  Soybean plant response rating: 0
[14]; [18]
  Plant response rating, Soybean: 0
[14]; [19]
  Plant response rating, Soybean: 0
[14]; [20]
  Soybean plant response rating: 0
[15]; [17]
  Corn plant response rating: 0
[15]; [18]
  Plant response rating, Corn: 5
[15]; [19]
  Plant response rating, Corn: 20
[15]; [20]
  Corn plant response rating: 5
[16]; [17]
  Blackgrass plant response rating: 0
[16]; [18]
  Plant response rating, Blackgrass: 5
[16]; [19]
  Plant response rating, Blackgrass: 10
[16]; [20]
  Blackgrass plant response rating: 0
